Data as given in ChEMBL document CHEMBL1201862, “PubChem BioAssay data set” (2004).
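A five-concentration, 48-hour dose response in 96-well plates underlies each endpoint, interpolated linearly between surrounding concentrations. Abbreviation: GI50, concentration required for 50% inhibition of growth.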 The source made the active and inactive calls. Cut-off read from the data, not from the text of the source: active = GI50 up to about 1.1 µM and inactive = higher.

Legend:
Assay in all cases: growth of human tumour cells (NCI), 48 h
786-0 = system: 786-0
HL-60 = system: HL-60
KM12 = system: KM12
LOX IMVI = system: LOX IMVI
M14 = system: M14
MOLT-4 = system: MOLT-4
NCI-H226 = system: NCI-H226
NCI-H522 = system: NCI-H522
OVCAR-3 = system: OVCAR-3
OVCAR-4 = system: OVCAR-4
RPMI-8226 = system: RPMI-8226
SF-539 = system: SF-539
SK-MEL-5 = system: SK-MEL-5
SNB-75 = system: SNB-75
UO-31 = system: UO-31
UACC-257 = system: UACC-257
HCC 2998 = system: HCC 2998
SR = system: SR

Structure (SMILES) | GI50 (786-0) | GI50 (HL-60) | GI50 (KM12) | GI50 (LOX IMVI) | GI50 (M14) | GI50 (MOLT-4) | GI50 (NCI-H226) | GI50 (NCI-H522) | GI50 (OVCAR-3) | GI50 (OVCAR-4) | GI50 (RPMI-8226) | GI50 (SF-539) | GI50 (SK-MEL-5) | GI50 (SNB-75) | GI50 (UO-31) | GI50 (UACC-257) | GI50 (HCC 2998) | GI50 (SR)
COc1cc(Br)c(C2OCCCO2)cc1OCc1ccccc1 | > 100 µM (inactive) | 38.5 µM (inactive) | > 100 µM (inactive) | 78.3 µM (inactive) | 67.9 µM (inactive) | 41.6 µM (inactive) | 17.5 µM (inactive) | 66.1 µM (inactive) | 47.2 µM (inactive) | 69.5 µM (inactive) | 52.8 µM (inactive) | 73.1 µM (inactive) | 46.3 µM (inactive) | > 100 µM (inactive) | 28.2 µM (inactive) |  |  | 
COc1ccc(C2=C(Cl)c3cc(OC)c(OC)cc3C2Cl)cc1OC (stereo unspecified) | 19.1 µM (inactive) | 13.7 µM (inactive) |  | 14.9 µM (inactive) | 17.7 µM (inactive) | 3.82 µM (inactive) |  |  | 15.1 µM (inactive) | 18.2 µM (inactive) | 10.2 µM (inactive) |  | 14.6 µM (inactive) | 13.6 µM (inactive) | 16.3 µM (inactive) | 17.8 µM (inactive) |  | 
CNC(=O)N(CCCCC(NC(C)=O)C(=O)NCc1ccccc1)Cc1ccccc1 (stereo unspecified) | > 100 µM (inactive) |  | > 100 µM (inactive) | > 100 µM (inactive) | > 100 µM (inactive) | > 100 µM (inactive) | > 100 µM (inactive) | > 100 µM (inactive) | > 100 µM (inactive) | > 100 µM (inactive) | > 100 µM (inactive) | > 100 µM (inactive) | > 100 µM (inactive) | > 100 µM (inactive) | > 100 µM (inactive) | > 100 µM (inactive) | > 100 µM (inactive) | 
CC(=O)N1c2ccccc2C2=CC3C4C(=O)N(c5ccccc5)C(=O)C4C21C1C(=O)N(c2ccccc2)C(=O)C31 (stereo unspecified) | 37.2 µM (inactive) | 20.7 µM (inactive) | 35.6 µM (inactive) | 43.9 µM (inactive) |  | 30.8 µM (inactive) |  |  |  |  |  | 2.61 µM (inactive) |  | 31.1 µM (inactive) | 48.3 µM (inactive) | 13.8 µM (inactive) | 20.7 µM (inactive) | 32.5 µM (inactive)
COc1ccc(/C=C/C(=O)c2sc(NC(=S)NC(=O)c3ccc(Cl)cc3)nc2C)cc1OC | 83.8 µM (inactive) | 30.3 µM (inactive) | 59.2 µM (inactive) | 32.2 µM (inactive) | 52.6 µM (inactive) | 27.2 µM (inactive) | 37.2 µM (inactive) | > 10 µM (inactive) | 38.4 µM (inactive) | 52.5 µM (inactive) | 24 µM (inactive) | 60.4 µM (inactive) |  |  | 64 µM (inactive) | 47.5 µM (inactive) | > 100 µM (inactive) | 32 µM (inactive)
NC(=S)N/N=C1/C(=O)N(c2ccccc2)C(=O)C1C(=O)Nc1ccccc1 (stereo unspecified) | > 100 µM (inactive) | > 100 µM (inactive) | > 100 µM (inactive) |  | > 100 µM (inactive) | > 100 µM (inactive) | > 100 µM (inactive) | > 100 µM (inactive) | > 100 µM (inactive) | > 100 µM (inactive) |  | > 100 µM (inactive) | > 100 µM (inactive) | > 100 µM (inactive) | > 100 µM (inactive) | > 100 µM (inactive) | > 100 µM (inactive) | > 100 µM (inactive)
COc1ccc(C(C#N)NNc2nc(C)cc(O)n2)cc1OC (stereo unspecified) | > 100 µM (inactive) | > 100 µM (inactive) | > 100 µM (inactive) | > 100 µM (inactive) | > 100 µM (inactive) | > 100 µM (inactive) | > 100 µM (inactive) | > 100 µM (inactive) | > 100 µM (inactive) | > 100 µM (inactive) | > 100 µM (inactive) | > 100 µM (inactive) | > 100 µM (inactive) | 71.9 µM (inactive) | > 100 µM (inactive) | > 100 µM (inactive) |  | > 100 µM (inactive)
O=C1O[C@@H](c2ccccc2)C[C@@H]1CN1CCOCC1 | > 100 µM (inactive) | > 100 µM (inactive) | > 100 µM (inactive) | > 100 µM (inactive) | > 100 µM (inactive) | > 100 µM (inactive) | > 100 µM (inactive) | > 100 µM (inactive) | > 100 µM (inactive) | > 100 µM (inactive) | 59.4 µM (inactive) | > 100 µM (inactive) | > 100 µM (inactive) | > 100 µM (inactive) | > 100 µM (inactive) | > 100 µM (inactive) | > 100 µM (inactive) | 
COc1cc(CNc2nc3ccc(C(F)(F)F)cc3nc2-c2ccccc2)cc(OC)c1OC | 28.3 µM (inactive) | 5.55 µM (inactive) | 24.6 µM (inactive) | 32.1 µM (inactive) | 40 µM (inactive) | 4.4 µM (inactive) |  | 11.5 µM (inactive) | 26.4 µM (inactive) | 19.4 µM (inactive) | 6.11 µM (inactive) | 46.7 µM (inactive) | 18.7 µM (inactive) | 8.38 µM (inactive) | 5.93 µM (inactive) | 34.9 µM (inactive) | 38.8 µM (inactive) | 
CN1CC(=O)N2Cc3ccccc3-n3cccc3C2C1 (stereo unspecified) | > 100 µM (inactive) |  | > 100 µM (inactive) | > 100 µM (inactive) | > 100 µM (inactive) |  |  |  | > 100 µM (inactive) | > 100 µM (inactive) |  | > 100 µM (inactive) | > 100 µM (inactive) | > 100 µM (inactive) | > 100 µM (inactive) | > 100 µM (inactive) | > 100 µM (inactive) | 
CC(=O)O[C@H]1CCC2[C@@H]3CCC4Nc5c(cnn5-c5ccccc5)C[C@]4(C)C3CC[C@@]21C (stereo partly specified) | 8.49 µM (inactive) | 7.64 µM (inactive) | 17.7 µM (inactive) | 12.8 µM (inactive) | 14.4 µM (inactive) | 6.93 µM (inactive) | 11.5 µM (inactive) | 14.7 µM (inactive) | 6.92 µM (inactive) | 21.4 µM (inactive) | 4.2 µM (inactive) | 17.5 µM (inactive) | 7.94 µM (inactive) | 4.01 µM (inactive) | 11 µM (inactive) | 11.5 µM (inactive) | 9.55 µM (inactive) | 
CCCN(CCCCC(NC(C)=O)C(=O)NCc1ccccc1)C(=O)NCCCl (stereo unspecified) | > 100 µM (inactive) | > 100 µM (inactive) | > 100 µM (inactive) |  | > 100 µM (inactive) | > 100 µM (inactive) | > 100 µM (inactive) | > 100 µM (inactive) | > 100 µM (inactive) | > 100 µM (inactive) | > 100 µM (inactive) | > 100 µM (inactive) | > 100 µM (inactive) | > 100 µM (inactive) | > 100 µM (inactive) | > 100 µM (inactive) | > 100 µM (inactive) | > 100 µM (inactive)
CC1CCC2(C)C(CC=C(C=O)C2(O)C=O)C12CO2 (stereo unspecified) | 2.4 µM (inactive) | 0.877 µM (active) | 3.21 µM (inactive) | 2.69 µM (inactive) | 1.36 µM (inactive) | 1.87 µM (inactive) | 0.665 µM (active) | 2.31 µM (inactive) | 0.481 µM (active) | 2.23 µM (inactive) | 2.15 µM (inactive) | 2.19 µM (inactive) |  |  | 1.81 µM (inactive) | 1.52 µM (inactive) | 2.29 µM (inactive) | 1.71 µM (inactive)
COc1ccc2c(c1)C(CCN)C(=O)N2 (stereo unspecified) | > 100 µM (inactive) | > 100 µM (inactive) | > 100 µM (inactive) | > 100 µM (inactive) | > 100 µM (inactive) | > 100 µM (inactive) |  |  | > 100 µM (inactive) | > 100 µM (inactive) | > 100 µM (inactive) | > 100 µM (inactive) | > 100 µM (inactive) | > 100 µM (inactive) |  | > 100 µM (inactive) | > 100 µM (inactive) | 
O=S(=O)(/C=C/CS(=O)(=O)c1ccccc1)c1ccccc1 | 24.3 µM (inactive) | 15.1 µM (inactive) | 13.8 µM (inactive) | 17.3 µM (inactive) | 23 µM (inactive) | 21.2 µM (inactive) | 19.3 µM (inactive) |  | 26.5 µM (inactive) | 35.6 µM (inactive) | 18.8 µM (inactive) | 20.3 µM (inactive) | 40.8 µM (inactive) | 36.1 µM (inactive) | 42.5 µM (inactive) | 24.2 µM (inactive) | 23.9 µM (inactive) | 1.66 µM (inactive)
C1CSCCSCCCS[C@@H]2CCCCC2SC1 (stereo partly specified) | > 100 µM (inactive) | 44.3 µM (inactive) | > 100 µM (inactive) | 24.2 µM (inactive) | > 100 µM (inactive) |  | > 100 µM (inactive) | 25.9 µM (inactive) | > 100 µM (inactive) | > 100 µM (inactive) | 21 µM (inactive) | > 100 µM (inactive) | > 100 µM (inactive) | > 100 µM (inactive) | > 100 µM (inactive) | > 100 µM (inactive) | > 100 µM (inactive) | 
NC(=O)CN(CC(N)=O)C(N)=O | > 100 µM (inactive) | > 100 µM (inactive) | > 100 µM (inactive) | > 100 µM (inactive) | > 100 µM (inactive) | > 100 µM (inactive) | > 100 µM (inactive) | > 100 µM (inactive) | > 100 µM (inactive) | > 100 µM (inactive) | > 100 µM (inactive) | > 100 µM (inactive) | > 100 µM (inactive) | 23 µM (inactive) | > 100 µM (inactive) | > 100 µM (inactive) |  | 
O=C1c2ccncc2C(=O)c2c(O)ccc(O)c21 | 6.38 µM (inactive) | 2.22 µM (inactive) | 6.07 µM (inactive) | 4.25 µM (inactive) | 4.65 µM (inactive) | 5.89 µM (inactive) | 15.7 µM (inactive) |  | 1.95 µM (inactive) | 11.1 µM (inactive) | 5.16 µM (inactive) | 3.89 µM (inactive) |  | 23.6 µM (inactive) | 16.2 µM (inactive) |  | 4.92 µM (inactive) | 11 µM (inactive)
